From patent publication US20090011418A1, “FUNCTIONAL TOLL-LIKE RECEPTORS (TLR) ON MELANOCYTES AND MELANOMA CELLS AND USES THEREOF” (JOHN WAYNE CANCER INSTITUTE, priority 2007, published 2009)

Columns and labels:
[1] = target: T1, TLR4 on the cell surface of melanoma lines (Homo sapiens, UniProt O00206+Q9Y6Y9); test: FITC-LPS fluorescence microscopy binding; settings: 20 μg/ml FITC-LPS, 20 min, fixed cells
T1 construct: endogenous in cells; host or cells: human melanoma cell lines (fixed with paraformaldehyde); PBLs as comparison
T1 sequence (O00206 24-839): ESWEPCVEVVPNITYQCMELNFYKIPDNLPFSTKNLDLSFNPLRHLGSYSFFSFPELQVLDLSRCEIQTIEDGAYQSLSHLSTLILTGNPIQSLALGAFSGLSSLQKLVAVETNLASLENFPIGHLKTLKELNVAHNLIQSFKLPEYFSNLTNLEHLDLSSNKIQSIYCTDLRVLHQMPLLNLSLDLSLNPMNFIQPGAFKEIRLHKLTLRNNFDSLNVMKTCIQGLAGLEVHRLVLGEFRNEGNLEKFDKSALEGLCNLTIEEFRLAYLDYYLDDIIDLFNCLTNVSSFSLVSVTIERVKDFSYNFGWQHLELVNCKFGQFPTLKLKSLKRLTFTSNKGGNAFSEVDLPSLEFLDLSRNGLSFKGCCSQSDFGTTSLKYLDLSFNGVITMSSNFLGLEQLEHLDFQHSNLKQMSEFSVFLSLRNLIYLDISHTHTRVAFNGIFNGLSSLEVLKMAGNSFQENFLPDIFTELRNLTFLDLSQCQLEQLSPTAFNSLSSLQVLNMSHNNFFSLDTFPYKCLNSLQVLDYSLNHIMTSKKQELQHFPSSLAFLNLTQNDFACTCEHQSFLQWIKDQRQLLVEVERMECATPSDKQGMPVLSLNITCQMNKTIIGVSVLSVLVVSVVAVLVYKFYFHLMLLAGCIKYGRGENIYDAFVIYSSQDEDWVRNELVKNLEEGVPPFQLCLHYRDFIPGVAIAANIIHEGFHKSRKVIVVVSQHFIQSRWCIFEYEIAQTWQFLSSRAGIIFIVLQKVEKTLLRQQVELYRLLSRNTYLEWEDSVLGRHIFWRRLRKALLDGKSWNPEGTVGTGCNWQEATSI
T1 sequence (Q9Y6Y9 17-160 limits assumed): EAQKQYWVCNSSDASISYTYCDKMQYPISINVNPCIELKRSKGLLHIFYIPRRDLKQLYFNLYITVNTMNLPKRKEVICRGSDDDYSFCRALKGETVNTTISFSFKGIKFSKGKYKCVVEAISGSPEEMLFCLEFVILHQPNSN
Experimental: (§1) Cells were fixed with 4% paraformaldehyde in PBS for 10 min, and then incubated inside a 37° C. humidified atmosphere containing 5% CO2 for 20 min in RPMI 1640 medium supplemented with 10% FBS and 20 μg/ml of fluorescein isothiocyanate (FITC)-LPS (Sigma, St Louis, Mo.). After washing, cells were visualized using an Olympus IX70 fluorescence microscope. The images were recorded using an Olympus C-3030 Zoom Camedia Digital Camera.
The inventors employed FITC-LPS to assess binding to TLR4 on the cell surface of melanoma lines. PIC-FITC and zymosan-FITC were not available for assessment. […] The FITC-LPS analysis confirmed TLR4 receptor staining on the melanoma cell surface.

PBLs = test: FITC-LPS fluorescence microscopy staining; type: binding, human; settings: 20 μg/ml FITC-LPS, 20 min, fixed cells
Experimental: as §1, with “Camera. […] The inventors employed FITC-LPS to assess binding to TLR4 on the cell surface of melanoma lines. PIC-FITC and zymosan-FITC were not available for assessment. […] The FITC-LPS analysis confirmed TLR4 receptor staining on the melanoma cell surface.” for “Camera.”

## fluorescein isothiocyanate (FITC)-LPS [FITC-LPS]
[1]
  binding to melanoma cell surface (staining): direct binding of LPS to melanoma cells
PBLs
  staining intensity of PBLs compared with melanoma cells: stained with more intensity
